Experimental data as given in patent US20230312744A1, “Modulatory Substance of Tumor Immune Microenvironment, and Preventive, Diagnostic and/or Therapeutic Utilization of the Same” (The University Of Tokyo, priority 2020, published 2023).

T1: mouse TCTP (mouse, UniProt P63028 1-172)
T1 construct: also called TCTP in the whole cell lysate of TCTP WT SL4 cells; TCTP released from dead SL4 cells
T1 sequence (looked up): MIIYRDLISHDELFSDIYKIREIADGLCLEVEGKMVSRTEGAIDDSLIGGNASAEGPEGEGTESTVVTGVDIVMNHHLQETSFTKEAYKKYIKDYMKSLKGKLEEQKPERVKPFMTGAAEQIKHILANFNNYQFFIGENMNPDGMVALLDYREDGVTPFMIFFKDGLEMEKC

B1: 55F3 antibody (antibody, V domains shown)
VH: DVQLQESGPGLVKPSQSLSLTCTATGYSIASDYAWNWIRQFPGNKLEWMGYINYSGSTGYNPSLKSRISITRDTSKNQFFLQLNSVTTEDTATYYCARFEAGYWGQGTTLTVSS
VL: DIKMTQSPSSMSASLGERVTITCKASQDINRYLSWFQQKPGKSPKTLIYRANRLVDGVPSRFSGSGSGQDYSLTISSLEYGDMGIYYCLQYNEFPLTFGAGTKLELKR
notes: also called 55F3E5; 55F3E5 (55F3) monoclonal antibody

How the values were obtained:
IL-2ss-TCTP tumors = test: Proliferation assay of subcutaneously transplanted IL-2ss-TCTP SL4 tumor in C57BL/6 mice; format: in vivo, mouse; conditions: 50 mg/kg orally, FIG. 11(i)
Procedure: In FIG. 11(a), PECs (2×10^5 cells) or SL4 cells (1×10^5 cells) were stimulated with recombinant TCTP for 2 hours. Thereafter, Cxcl1 mRNA was quantified by qRT-PCR (n=3). In FIG. 11(b), the Cxcl1 mRNA of TCTP WO SL4 cells and TCTP KO SL4 cells was quantified by RT-qPCR. n=3. In FIG. 11(c), SL4 cells (2×10^5 cells) were subcutaneously transplanted into C57BL/6 mice (n=3). On Day 21 after the transplantation, single cell suspensions were prepared from tumors. Thereafter, various immune cells (PMN-MDSCs, M-MDSCs, TAMS, DCs, T cells, B cells, and NK cells) were separated, and the Cxcl2 mRNA of individual cells was then quantified by qRT-PCR. In FIG. 11(d), PECs (2×10^5 cells) were stimulated with recombinant IL-la for 2 hours. Thereafter, Cxcl1 mRNA was quantified by qRT-PCR (n=3). […] HEK293T cells transiently expressing TLR2-YFP and Flag-TCTP were subjected to immunoprecipitation with an anti-GFP antibody, and thereafter, were analyzed with an anti-Flag antibody (upper view), and TLR2 and TCTP in the whole cell lysate were detected (lower view). […] The tumor volume was measured over time. In FIG. 11(i), IL-2ss-TCTP SL4 cells (2×10^5 cells) were subcutaneously transplanted into C57BL/6 mice, and the tumor volume was then measured over time. […]

mouse TCTP = molecular target: T1, mouse TCTP; test: immunoblotting of whole cell lysates of TCTP WT and TCTP KO SL4 cells

Molecule | proliferation of IL-2ss-TCTP tumors (IL-2ss-TCTP tumors) | binding result (mouse TCTP)
COc1cccc(C=O)c1O [O -vanillin, O-vanillin] | suppressed | 
B1 |  | binds
